Source: US20230242496A1, “SOX11 INHIBITORS FOR TREATING MANTLE CELL LYMPHOMA” (Icahn School of Medicine At Mount Sinai, priority 2020, published 2023)

Tests used:
(His)6-SOX11-DBD protein = target: T1, (His)6-SOX11-DBD protein (Homo sapiens, UniProt P35716); assay: Surface Plasmon Resonance (SPR) assay; format: binding; conditions: immobilized recombinant (His)6-SOX11-DBD, 25° C., compounds 5-40 μM, mean of three experiments
T1 construct: Recombinant (His)6-SOX11-DBD protein was immobilized
T1 sequence (P35716 49-117 limits assumed): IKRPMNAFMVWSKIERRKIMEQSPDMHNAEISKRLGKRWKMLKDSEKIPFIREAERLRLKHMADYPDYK

Jeko-1 (SOX11+) = assay: Cell viability assay (CellTiter-Blue resazurin reduction); format: cell-based; conditions: Homo sapiens, JeKo-1, 72 h, JeKo-1 cells; for IC50: 0-40 μM; for viability at 20 µM: 20 μM compound, normalized to 0.2% DMSO
Summary of the method: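 Cells were exposed to compound for 72 h, then resazurin reduction (CellTiter-Blue, 2 h) was read by fluorescence and converted to viable cell number via a standard curve. Viability was normalised to 0.2% DMSO-treated cells. IC50 came from a sigmoidal dose-response fit, three separate experiments.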

## CC1Sc2ccc(C(=O)Nc3ccc(S(=O)(=O)Nc4ccccc4C(F)(F)F)cc3)cc2NC1=O (stereo not drawn)
(His)6-SOX11-DBD protein
  Kd: 1.1 µM
Jeko-1 (SOX11+)
  IC50: 10 µM
  viability at 20 µM: 8.61%

## Cc1ccc(NC(=O)c2ccc3c(c2)N(C)C(=O)CS3)cc1S(=O)(=O)N1CCCCC1
(His)6-SOX11-DBD protein
  Kd: 8.89 µM
Jeko-1 (SOX11+)
  viability at 20 µM: 3.42%

## O=C(Nc1cccc(S(=O)(=O)N2CCCC2)c1)c1ccc2c(c1)CCCS2
(His)6-SOX11-DBD protein
  Kd: 1.98 µM
Jeko-1 (SOX11+)
  viability at 20 µM: 27.1%

## CC1Sc2ccc(C(=O)Nc3ccc(S(=O)(=O)N4CCCC4)cc3)cc2NC1=O (stereo not drawn)
(His)6-SOX11-DBD protein
  Kd: 138 µM
Jeko-1 (SOX11+)
  IC50: 8.5 µM
  viability at 20 µM: 2.97%

## CC1Sc2ccc(C(=O)Nc3ncc(S(=O)(=O)Nc4ccccc4)s3)cc2NC1=O (stereo not drawn)
(His)6-SOX11-DBD protein
  Kd: 3.12 µM
Jeko-1 (SOX11+)
  IC50: > 20 µM
  viability at 20 µM: 88%

## CC1Sc2ccc(C(=O)N(c3ccccc3)S(=O)(=O)c3ccc(N)cc3)cc2NC1=O (stereo not drawn)
(His)6-SOX11-DBD protein
  Kd: 7.75 µM
Jeko-1 (SOX11+)
  IC50: > 20 µM
  viability at 20 µM: 91.2%

## c1ccc(COc2cccc(CNc3ccc4cnccc4c3)c2)cc1
(His)6-SOX11-DBD protein
  Kd: 47.8 µM
Jeko-1 (SOX11+)
  viability at 20 µM: 1.12%

## CC1Sc2ccc(C(=O)Nc3cccc(S(=O)(=O)N4CCOCC4)c3)cc2NC1=O (stereo not drawn)
(His)6-SOX11-DBD protein
  Kd: 85 µM
Jeko-1 (SOX11+)
  IC50: 8 µM
  viability at 20 µM: 30.8%

## O=C(Nc1ccc(S(=O)(=O)Nc2ccccc2)cc1)c1ccc2cncnc2c1
(His)6-SOX11-DBD protein
  Kd: 226 µM
Jeko-1 (SOX11+)
  IC50: > 20 µM
  viability at 20 µM: 100%

## CC1Sc2ccc(C(=O)Nc3cccc(S(=O)(=O)Nc4ccc(N)cc4)c3)cc2NC1=O (stereo not drawn)
(His)6-SOX11-DBD protein
  Kd: 59.7 µM
Jeko-1 (SOX11+)
  IC50: > 20 µM
  viability at 20 µM: 59.7%

## CC1Sc2ccc(C(=O)Nc3ccc(S(=O)(=O)Nc4ccc(F)cc4)cc3)cc2NC1=O (stereo not drawn)
(His)6-SOX11-DBD protein
  Kd: 15.9 µM
Jeko-1 (SOX11+)
  IC50: > 20 µM
  viability at 20 µM: 80.1%

## CC1Sc2ccc(C(=O)Nc3cccc(S(=O)(=O)Nc4cccc(F)c4)c3)cc2NC1=O (stereo not drawn)
(His)6-SOX11-DBD protein
  Kd: 0.629 µM
Jeko-1 (SOX11+)
  IC50: 10 µM
  viability at 20 µM: 13.1%

## O=C1Cc2ccc(C(=O)Nc3ccc(S(=O)(=O)Nc4ccccc4)cc3)cc2N1
(His)6-SOX11-DBD protein
  Kd: 20.9 µM
Jeko-1 (SOX11+)
  IC50: > 20 µM
  viability at 20 µM: 81.5%

## CCN(CC)S(=O)(=O)c1cccc(NC(=O)c2ccc3c(c2)NC(=O)C(C)S3)c1 (stereo not drawn)
(His)6-SOX11-DBD protein
  Kd: 31.2 µM
Jeko-1 (SOX11+)
  IC50: 8 µM
  viability at 20 µM: 0.44%

## CC1Sc2ccc(C(=O)Nc3ccc(S(C)(=O)=O)cc3)cc2NC1=O (stereo not drawn)
(His)6-SOX11-DBD protein
  Kd: 7.13 µM
Jeko-1 (SOX11+)
  IC50: 15 µM
  viability at 20 µM: 30.6%

## O=C(Nc1ccc(S(=O)(=O)Nc2ccccc2)cc1)c1ccc2[nH]ncc2c1
(His)6-SOX11-DBD protein
  Kd: 78.5 µM
Jeko-1 (SOX11+)
  IC50: 20 µM
  viability at 20 µM: 47.6%

## CC1Sc2ccc(C(=O)Nc3ccc(S(=O)(=O)N4CCOCC4)cc3)cc2NC1=O (stereo not drawn)
(His)6-SOX11-DBD protein
  Kd: 137 µM
Jeko-1 (SOX11+)
  IC50: 11 µM
  viability at 20 µM: 18.9%

## CC1Sc2ccc(C(=O)Nc3ccc(S(=O)(=O)N(C)C)cc3)cc2NC1=O (stereo not drawn)
(His)6-SOX11-DBD protein
  Kd: 15.4 µM
Jeko-1 (SOX11+)
  IC50: 15 µM
  viability at 20 µM: 19.6%

## CC1Sc2ccc(C(=O)Nc3ccc(S(=O)(=O)Nc4ccccn4)cc3)cc2NC1=O (stereo not drawn)
(His)6-SOX11-DBD protein
  Kd: 130 µM
Jeko-1 (SOX11+)
  IC50: > 20 µM
  viability at 20 µM: 96.4%

## CC1Sc2ccc(C(=O)Nc3ccc(S(=O)(=O)Nc4ccccc4)c(Cl)c3)cc2NC1=O (stereo not drawn)
(His)6-SOX11-DBD protein
  Kd: 4.36 µM
Jeko-1 (SOX11+)
  IC50: 5 µM
  viability at 20 µM: 1.8%

## O=C(Nc1ccc(S(=O)(=O)Nc2ccccc2)cc1)c1ccc2ncccc2c1
(His)6-SOX11-DBD protein
  Kd: 70 µM
Jeko-1 (SOX11+)
  IC50: < 20 µM
  viability at 20 µM: 26%

## CC1Sc2ccc(C(=O)Nc3cccc(S(=O)(=O)N4CCCC4)c3)cc2N(C)C1=O (stereo not drawn)
(His)6-SOX11-DBD protein
  Kd: 346 µM
Jeko-1 (SOX11+)
  viability at 20 µM: 13.9%

## Cc1cccc(NCc2ccc(NC(=O)c3ccc4c(c3)NC(=O)C(C)S4)cc2)c1 (stereo not drawn)
(His)6-SOX11-DBD protein
  Kd: 8.16 µM
Jeko-1 (SOX11+)
  viability at 20 µM: 79%

## CC1Sc2ccc(C(=O)Nc3ccc(S(=O)(=O)N(C)c4ccccc4)cc3)cc2NC1=O (stereo not drawn)
(His)6-SOX11-DBD protein
  Kd: 1.47 µM
Jeko-1 (SOX11+)
  IC50: 9 µM
  viability at 20 µM: 18%

## CC1Sc2ccc(C(=O)Nc3ccc(S(=O)(=O)Nc4ccncn4)cc3)cc2NC1=O (stereo not drawn)
(His)6-SOX11-DBD protein
  Kd: 5.51 µM
Jeko-1 (SOX11+)
  IC50: > 20 µM
  viability at 20 µM: 106%

## CC1Sc2ccc(C(=O)Nc3ccc(CN4CCCC4)cc3)cc2NC1=O (stereo not drawn)
(His)6-SOX11-DBD protein
  Kd: 71.5 µM
Jeko-1 (SOX11+)
  viability at 20 µM: 104%

## O=C(Nc1ccc(S(=O)(=O)Nc2ccccc2)cc1)c1ccc2cccnc2c1
(His)6-SOX11-DBD protein
  Kd: 2.01 µM
Jeko-1 (SOX11+)
  IC50: > 20 µM
  viability at 20 µM: 94.2%
